In PubChem BioAssay (NCI):
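Following 48 hours of exposure in 96-well plates, responses at five concentrations were used to interpolate endpoints linearly. At the GI50, growth is halved. TGI marks complete inhibition of growth.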

What was measured:
Assay in all cases: DTP human tumour cell line panel, 48 h
[1] = test system: 786-0 renal
[2] = test system: HCT-15 colon
[3] = test system: HOP-92 NSCLC
[4] = test system: LOX IMVI melanoma
[5] = test system: OVCAR-3 ovarian
[6] = test system: T-47D breast
[7] = test system: SNB-19 CNS
[8] = test system: UACC-62 melanoma
[9] = test system: UO-31 renal
[10] = test system: MALME-3M melanoma

Compound | GI50 [1] | TGI [1] [µM] | GI50 [2] | TGI [2] [µM] | GI50 [3] [µM] | TGI [3] [µM] | GI50 [4] | TGI [4] [µM] | GI50 [5] | TGI [5] [µM] | GI50 [6] | TGI [6] [µM] | GI50 [7] | TGI [7] [µM] | GI50 [8] | TGI [8] [µM] | GI50 [9] | TGI [9] [µM] | GI50 [10] | TGI [10]
Clc1cc(Cl)cc(Nc2ccc3cc(OCCCN4CCOCC4)ccc3n2)c1 | 1.58 µM | 3.11 | 1.47 µM | 4.15 | 1.63 | 5.01 | 1.62 µM | 3.05 | 2.36 µM | 6.4 | 3.01 µM | 14.1 |  |  |  |  |  |  |  | 
O=C1CSC(c2ccc(-c3nc4ccccc4s3)cc2)=N1 | 77.2 µM | > 100 | 51.9 µM | > 100 | > 100 | > 100 | 7.48 µM | 26.9 | 16 µM | 55 | 90.9 µM | > 100 | 72.7 µM | > 100 | 18 µM | 45.2 | 74.8 µM | > 100 |  | 
Nc1nc(N)c2cc(CNc3ccc(C(=O)NC(CC(=O)O)C(=O)O)c(Cl)c3)ccc2n1 (stereo not drawn) | < 0.01 µM | > 500 | 0.05 µM | > 500 |  |  | 0.05 µM | > 500 | 177 µM | > 500 |  | > 500 | 0.05 µM | > 500 | 0.05 µM | > 500 | 0.244 µM | > 500 | > 500 µM | > 500 µM
C=CCN1CC2CON(C(=O)C(OC)(c3ccccc3)C(F)(F)F)C2C1C(C)C (stereo not drawn) | 26.7 µg/mL |  | 35.6 µg/mL |  |  |  | 26.6 µg/mL |  | 36.3 µg/mL |  | 34.5 µg/mL |  | 54.5 µg/mL |  | 45.1 µg/mL |  | 26.3 µg/mL |  | 20 µg/mL | 54.5 µg/mL
Clc1ccc(N=CNc2ccc(-c3nc4ccccc4o3)cc2)cc1 | 34.6 µM | > 100 | 24.5 µM | > 100 | 57.1 | > 100 | 12.5 µM | 25.8 | 11.2 µM | 25.3 | 13.1 µM | 52.1 | 35.8 µM | > 100 | 25.3 µM | > 100 | 40.6 µM | > 100 |  | 
CCN(CC)c1cc2oc3cc(N)cc(=N)c-3nc2cc1C | 11.2 µM | 70.1 | 3.14 µM | > 100 | 20.2 | 79.7 |  |  | 1.78 µM | 5.63 | 5.04 µM | 43.8 | 5.46 µM | 32 | 2.06 µM | 5.94 | 3.38 µM | 49 | 2.16 µM | 6.08 µM
CO/N=C(/C)c1cccc(Nc2cc(-c3ccccc3)nc3ccc(OC)cc23)c1 | 3.18 µM | 13.3 | 14.9 µM | 41.1 | 2.55 | 8.55 |  |  |  |  | 71 µM | > 100 | 35.2 µM | > 100 | 4.33 µM | 17.7 | 15.5 µM | > 100 | 2.45 µM | 7.78 µM
N#Cc1ccc(OC(=O)Nc2ccc(Cl)c(Cl)c2)cc1 | 4.83 µM | 61.2 | 2.94 µM | 13.8 | 1.9 | 7.34 |  |  | 3.01 µM | 9.1 | 3.15 µM | 12.8 | 3.1 µM | > 100 | 3.06 µM | 31.7 | 2.99 µM | 24.8 | 3.81 µM | 20.6 µM
CC[C@@]1(O)C(=O)OCc2c1cc1n(c2=O)Cc2c-1nc1cc(F)c(C)c3c1c2[C@@H](N)CC3 | < 0.01 µM |  | 0.0215 µM | > 100 | < 0.01 | 0.307 |  |  | 0.0339 µM | 0.907 | < 0.01 µM | > 100 | < 0.01 µM | > 100 | < 0.01 µM | 0.0208 | < 0.01 µM | 0.108 | < 0.014 µM | 0.281 µM
C[C@]12CC[C@@H]3c4ccc(O)c([N+](=O)[O-])c4CC[C@H]3[C@@H]1CC[C@@H]2NS(=O)(=O)c1cccc(Br)c1 | 2.7 µM | 7.5 | 1.59 µM | 3.09 | 1.53 | 5.03 |  |  | 2.43 µM | 5.64 | 1.8 µM | 3.96 | 3.53 µM | 14.1 | 1.6 µM | 3.69 | 2.19 µM | 5.63 | 2.17 µM | 5.4 µM
COc1ccc2c3c(Nc4ccc(/C(C)=N/O)cc4)[nH]c4ccccc4c-3c(N=O)c2c1 | 13.4 µM | 28.2 | 1.81 µM | 4.56 | 13.1 | 36 |  |  |  |  | 24.1 µM | 53.2 | 22.9 µM | 51.9 | 7.91 µM | 23.7 | 18.5 µM | 35.5 | 6.31 µM | 27.6 µM
